Data published in ChEMBL document CHEMBL2069256, “Development of Toxoplasma gondii calcium-dependent protein kinase 1 (TgCDPK1) inhibitors with potent anti-toxoplasma activity” (J Med Chem, 2012).

Key:
Toxoplasma gondii [1] = assay: microbe, parasite or virus in culture; details: 44 h
HL-60 = assay: Cytotoxicity against human HL60 cells assessed as inhibition of cell growth after 48 to 72 hrs by alamar blue assay; format: cell-based
Ephrin type-A receptor 3 = target: T1, Ephrin type-A receptor 3 (Homo sapiens, UniProt P29320); assay: Inhibition of human EPHA3 using myelin basic protein as substrate after 120 mins
T1 sequence (P29320 whole entry): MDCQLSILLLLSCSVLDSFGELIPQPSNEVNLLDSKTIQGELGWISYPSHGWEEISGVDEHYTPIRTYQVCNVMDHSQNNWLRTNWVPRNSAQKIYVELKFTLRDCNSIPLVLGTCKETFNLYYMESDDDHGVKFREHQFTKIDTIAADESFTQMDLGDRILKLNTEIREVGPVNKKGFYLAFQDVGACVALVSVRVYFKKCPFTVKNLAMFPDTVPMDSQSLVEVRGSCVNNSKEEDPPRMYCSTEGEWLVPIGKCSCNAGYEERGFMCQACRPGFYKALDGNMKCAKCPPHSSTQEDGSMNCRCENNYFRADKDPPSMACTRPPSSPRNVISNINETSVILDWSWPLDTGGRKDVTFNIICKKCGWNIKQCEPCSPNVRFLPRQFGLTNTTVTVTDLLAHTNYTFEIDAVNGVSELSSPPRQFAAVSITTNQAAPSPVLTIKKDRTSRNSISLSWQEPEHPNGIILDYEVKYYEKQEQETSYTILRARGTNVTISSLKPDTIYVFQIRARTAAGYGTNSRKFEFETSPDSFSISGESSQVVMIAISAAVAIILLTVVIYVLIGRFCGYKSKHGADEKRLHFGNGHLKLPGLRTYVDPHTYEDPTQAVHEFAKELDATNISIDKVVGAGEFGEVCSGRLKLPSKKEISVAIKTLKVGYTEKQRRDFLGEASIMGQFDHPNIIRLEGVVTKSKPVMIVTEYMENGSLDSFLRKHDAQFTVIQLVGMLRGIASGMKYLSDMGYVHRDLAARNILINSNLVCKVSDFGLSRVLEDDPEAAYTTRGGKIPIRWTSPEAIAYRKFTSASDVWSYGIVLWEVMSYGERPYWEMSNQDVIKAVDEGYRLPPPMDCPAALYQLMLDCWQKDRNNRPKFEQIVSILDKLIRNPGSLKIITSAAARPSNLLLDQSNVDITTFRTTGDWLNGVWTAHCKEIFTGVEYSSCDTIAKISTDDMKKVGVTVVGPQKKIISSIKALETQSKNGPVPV

[2] = target: Epidermal growth factor receptor (Homo sapiens, UniProt P00533); assay: Inhibition of human EGFR using poly glu-Tyr as substrate after 30 mins
[3] = target: Tyrosine-protein kinase CSK (Homo sapiens, UniProt P41240); assay: Inhibition of human CSK using Ac-KKKKEEIYFFF-OH as substrate after 180 mins
[4] = target: Tyrosine-protein kinase Lck (Homo sapiens, UniProt P06239); assay: Inhibition of human LCK using Ac-EIYGEFKKK-OH as substrate after 60 mins
[5] = target: Proto-oncogene tyrosine-protein kinase Src (Homo sapiens, UniProt P12931)
[6] = target: Mitogen-activated protein kinase 14 (Homo sapiens, UniProt Q16539); assay: Inhibition of human p38alpha using myelin basic protein as substrate after 180 mins
[7] = Cytotoxicity against human CRL8155 cells assessed as inhibition of cell growth after 48 to 72 hrs by alamar blue assay; format: cell-based
[8] = Inhibition of Toxoplasma gondii CDPK1 Gly128Met mutant using syntide-2 peptide as substrate after 90 mins by kinase glo-luciferase assay
[9] = Inhibition of Toxoplasma gondii CDPK1 using syntide-2 peptide as substrate after 90 mins by kinase glo-luciferase assay
[10] = target: Tyrosine-protein kinase ABL1 (Homo sapiens, UniProt P00519); assay: Inhibition of human ABL using EAIYAAPFAKKK-OH as substrate by phosphor imaging method
Toxoplasma gondii [11] = assay: Antiparasitic activity against Toxoplasma gondii expressing CDPK1 Gly128Met mutant; format: functional, organism-based

Compound: CC(C)(C)n1nc(-c2ccc3ncccc3c2)c2c(N)ncnc21
- EC50 (Toxoplasma gondii [1]): 110 nM

Compound: CCOc1ccc2cc(-c3nn(C4CCN(CC)CC4)c4ncnc(N)c34)ccc2c1
- EC50 (Toxoplasma gondii [1]): 90 nM

Compound: CC(C)n1nc(-c2ccc3cc(OCc4ccccc4Cl)ccc3c2)c2c(N)ncnc21
- EC50 (Toxoplasma gondii [1]): 140 nM

Compound: COc1ccc2cc(-c3nn(C(C)C)c4ncnc(N)c34)ccc2c1
- GI50 (HL-60): > 10000 nM
- IC50 (Ephrin type-A receptor 3): 1600 nM
- IC50 [2]: 510 nM
- IC50 [3]: 2600 nM
- IC50 [4]: 79 nM
- IC50 [5]: 670 nM
- IC50 [6]: > 10000 nM
- GI50 [7]: > 10000 nM

Compound: CC(C)n1nc(-c2cc3c(Cl)cccc3[nH]2)c2c(N)ncnc21
- IC50 [5]: 1200 nM

Compound: C=CCOc1ccc2cc(-c3nn(CC4CCNCC4)c4ncnc(N)c34)ccc2c1
- EC50 (Toxoplasma gondii [1]): 120 nM

Compound: Nc1ncnc2c1c(-c1ccc3cc(OCc4ccccc4)ccc3c1)nn2CC1CCNCC1
- EC50 (Toxoplasma gondii [1]): 130 nM

Compound: CC(C)(C)n1ncc2c(N)ncnc21
- EC50 (Toxoplasma gondii [1]): > 6250 nM
- IC50 [5]: > 10000 nM

Compound: CCOc1ccc2cc(-c3nn(C(C)C)c4ncnc(N)c34)ccc2c1
- IC50 (Ephrin type-A receptor 3): 3700 nM
- IC50 [2]: 700 nM
- IC50 [3]: 3100 nM
- IC50 [4]: 52 nM

Compound: Nc1ncnc2c1cnn2CC1CCNCC1
- EC50 (Toxoplasma gondii [1]): > 6250 nM
- IC50 [5]: > 10000 nM

Compound: CC(C)COc1ccc2cc(-c3nn(CC4CCNCC4)c4ncnc(N)c34)ccc2c1
- EC50 (Toxoplasma gondii [1]): 210 nM

Compound: CC(C)Oc1ccc2cc(-c3nn(CC4CCNCC4)c4ncnc(N)c34)ccc2c1
- EC50 (Toxoplasma gondii [1]): 500 nM

Compound: COc1ccc(-c2nn(C(C)C)c3ncnc(N)c23)cc1C
- EC50 (Toxoplasma gondii [1]): 80 nM

Compound: CCOc1ccc2cc(-c3nn(C[C@@H](N)C(C)C)c4ncnc(N)c34)ccc2c1
- EC50 (Toxoplasma gondii [1]): 1000 nM

Compound: CCOc1ccc2cc(-c3nn(CC4CCN(CC)CC4)c4ncnc(N)c34)ccc2c1
- EC50 (Toxoplasma gondii [1]): 330 nM

Compound: COc1ccc(-c2nn(CC3CCNCC3)c3ncnc(N)c23)cc1C
- EC50 (Toxoplasma gondii [1]): 1700 nM

Compound: Cc1cccc(-c2nn(C(C)(C)C)c3ncnc(N)c23)c1
- EC50 (Toxoplasma gondii [1]): 41 nM

Compound: CCOc1ccc2cc(-c3nn(C4CCN(C(C)=O)CC4)c4ncnc(N)c34)ccc2c1
- EC50 (Toxoplasma gondii [1]): 29 nM

Compound: CCOc1ccc2cc(-c3nn(C4CCNCC4)c4ncnc(N)c34)ccc2c1
- EC50 (Toxoplasma gondii [1]): 45 nM

Compound: Nc1ncnc2c1c(-c1ccc3ccccc3c1)nn2CC1CCNCC1
- EC50 (Toxoplasma gondii [1]): 630 nM

Compound: CCCN1CCC(n2nc(-c3ccc4cc(OCC)ccc4c3)c3c(N)ncnc32)CC1
- EC50 (Toxoplasma gondii [1]): 160 nM

Compound: CC(C)(C)n1nc(-c2ccccc2)c2c(N)ncnc21
- EC50 (Toxoplasma gondii [1]): 230 nM

Compound: Nc1ncnc2c1c(Cc1cccc3ccccc13)nn2CC1CCNCC1
- IC50 [5]: > 10000 nM

Compound: Nc1ncnc2c1c(-c1ccc3cc(OCc4cccc(Cl)c4)ccc3c1)nn2CC1CCNCC1
- EC50 (Toxoplasma gondii [1]): 100 nM

Compound: C=CCOc1ccc2cc(-c3nn(C(C)C)c4ncnc(N)c34)ccc2c1
- EC50 (Toxoplasma gondii [1]): 10 nM

Compound: Nc1ncnc2c1c(-c1ccc3cc(OCc4ccc(Cl)cc4)ccc3c1)nn2CC1CCNCC1
- EC50 (Toxoplasma gondii [1]): 460 nM
- IC50 [8]: 1100 nM

Compound: Cn1ncc2cc(-c3nn(C(C)(C)C)c4ncnc(N)c34)ccc21
- EC50 (Toxoplasma gondii [1]): 120 nM

Compound: CC(C)n1nc(-c2ccc3ccccc3c2)c2c(N)ncnc21
- EC50 (Toxoplasma gondii [1]): 72 nM

Compound: CCCOc1ccc2cc(-c3nn(CC4CCNCC4)c4ncnc(N)c34)ccc2c1
- EC50 (Toxoplasma gondii [1]): 160 nM

Compound: CCOc1ccc2cc(-c3nn(CCC4CCN(C)CC4)c4ncnc(N)c34)ccc2c1
- EC50 (Toxoplasma gondii [1]): 49 nM

Compound: CCOc1ccc2cc(-c3nn(C4CCN(CCCN)CC4)c4ncnc(N)c34)ccc2c1
- EC50 (Toxoplasma gondii [1]): 340 nM

Compound: CCOc1ccc2cc(-c3nn(CC4CCN(C)CC4)c4ncnc(N)c34)ccc2c1
- IC50 [9]: 2.9 nM
- GI50 (HL-60): > 10000 nM
- IC50 (Ephrin type-A receptor 3): > 10000 nM
- IC50 [2]: > 10000 nM
- IC50 [10]: 4600 nM
- IC50 [3]: > 10000 nM
- IC50 [4]: 3300 nM
- EC50 (Toxoplasma gondii [1]): 140 nM
- EC50 (Toxoplasma gondii [11]): 1000 nM
- IC50 [5]: > 10000 nM
- IC50 [6]: > 10000 nM
- GI50 [7]: > 10000 nM
